From patent US8937072B2, “Substituted cyanoaniline compounds, preparation and use thereof” (Sinochem Corporation, priority 2011, dated 2015) come the findings set out here.

One test relates to corn rust. Nature of the test: Protectant activity in vivo (whole plant) against corn rust. The conditions noted are these: for pest or weed control at 6.25 µg/mL / pest or weed control at 25 µg/mL / pest or weed control at 100 µg/mL / pest or weed control at 400 µg/mL: Zea mays, 168 h. The method, then: (§1) The method is as followed: The whole plant is used in this test. The compound is dissolved in a proper solvent to get mother solution. The proper solvent is selected from acetone, methanol, DMF and so on according to their dissolving capability to the sample. The volume rate of solvent and testing solution (v/v) is equal to or less than 5%. The mother solution is diluted with water containing 0.1% tween-80 to get the testing solution whose concentration is designed. The testing solution is sprayed to the host plant by a special plant sprayer. The plant is inoculated with fungus after 24 hours. According to the infecting characteristic of fungus, the plant is stored in a humidity chamber and then transferred into greenhouse after infection is finished. And the other plants are placed in greenhouse directly. The activity of compound is obtained by eyeballing after 7 days in common.

The test system of another test is cucumber downy mildew. Kind of test: Protectant activity in vivo (whole plant) against cucumber downy mildew. The conditions noted are these: for pest or weed control at 12.5 µg/mL: 12.5 mg/L. The method, then:
as §1

For the next test, the system named is cucumber gray mold. Kind of test: Activity in vitro (96-well, High Through Put): inhibition rate against cucumber gray mold. Type of test: cell-based. The conditions noted are these: for inhibition at 0.3 µg/mL: 0.3 mg/L; for inhibition at 0.9 µg/mL: 0.9 mg/L; for inhibition at 8.3 µg/mL: 8.3 mg/L; for inhibition rate against cucumber gray mold: dose 0.9 mg/L. The method, then:
The method is as followed: High Through Put is used in the test. The compound is dissolved in a proper solvent to become a testing solution whose concentration is designed. The solvent is selected from acetone, methanol, DMF and so on according to their dissolving capability to the sample. In a no animalcule condition, the testing solution and pathogens suspension are added into the cells of 96 cells culture board, which then should be placed in the constant temperature box. 24 hours later, pathogen germination or growth can be investigated by eyeballing, and the activity in vitro of the compound is evaluated based on germination or growth of control treatment.

Where [1] appears, read: 400 mg/L, read-out: the protectant activity (%) against corn rust.
Setting [2] is: dose 400 mg/L, read-out: protectant activity against corn rust in vivo.
[3] abbreviates: Cucumis sativus, 168 h, 25 mg/L, read-out: the protectant activity (%) against cucumber downy mildew.
Setting [4] is: Cucumis sativus, 168 h, 50 mg/L, read-out: the protectant activity (%) against cucumber downy mildew.
Setting [5] is: Cucumis sativus, 168 h, 100 mg/L, read-out: the protectant activity (%) against cucumber downy mildew.
Where [6] appears, read: Cucumis sativus, 168 h, dose 50 mg/L, read-out: protectant activity against cucumber downy mildew in vivo.
Where [7] appears, read: read-out: the inhibition rate against cucumber gray mold (%).
Setting [8] is: 2.8 mg/L, read-out: the inhibition rate against cucumber gray mold (%).

Like-named read-outs stand apart in the source and are kept apart here.

As for `N#Cc1c(F)c(F)c(C#N)c(Nc2ccc(O)cc2)c1F` [KC16], in the test with corn rust (6.25 mg/L), the pest or weed control at 6.25 µg/mL was determined as 0%. For the same molecule, the pest or weed control at 25 µg/mL in the test on corn rust (25 mg/L) and in the test on cucumber downy mildew (setting [3]) was 0% throughout. Moreover, the pest or weed control at 100 µg/mL in the test on corn rust (100 mg/L) turned out to be 0%; in the test on cucumber downy mildew (setting [5]), 20%; in the test with cucumber downy mildew (Cucumis sativus, 168 h, dose 100 mg/L, read-out: protectant activity against cucumber downy mildew in vivo), 20%. For the same molecule, the pest or weed control at 400 µg/mL in the test with corn rust (setting [1]) and in the test on corn rust (setting [2]) was 0% in each case. The molecule further came in with a pest or weed control at 12.5 µg/mL in the test with cucumber downy mildew (Cucumis sativus, 168 h) of 0%. Besides, the pest or weed control at 50 µg/mL in the test on cucumber downy mildew (setting [4]) and in the test on cucumber downy mildew (setting [6]) was 0% in each case.

`Cc1ccc(Nc2c(Cl)c(F)c(C#N)c(F)c2C#N)cc1` [KC19]: in the test with corn rust (6.25 mg/L), the pest or weed control at 6.25 µg/mL turned out to be 0%. The pest or weed control at 25 µg/mL with corn rust (25 mg/L) came out at 0%. For the same molecule, the pest or weed control at 100 µg/mL in the test on corn rust (100 mg/L) was determined as 0%. The pest or weed control at 400 µg/mL in the test on corn rust (setting [1]) and with corn rust (setting [2]) was 0% each time. Further, in the test on cucumber gray mold, 0.3 µg/mL produced 0% inhibition. The inhibition – broadly, the percentage by which the read-out fell short of the control – at 0.9 µg/mL in the test on cucumber gray mold (setting [7]) is 0%. The inhibition at 2.8 µg/mL in the test on cucumber gray mold (setting [8]) was 0%. The inhibition at 8.3 µg/mL with cucumber gray mold (setting [7]) is 0%. Also, testing at 25 µg/mL with cucumber gray mold (in vitro, dose 25 mg/L) gave an inhibition of 0%.

Turning to `N#Cc1c(Cl)c(Cl)c(C#N)c(Nc2ccc(Cl)cc2[N+](=O)[O-])c1Cl` [Compound C-33], in the test with corn rust (dose 400 mg/L), the “protectant activity against corn rust in vivo” value is recorded as 100%. Besides, the “protectant activity against cucumber downy mildew in vivo” value in the test on cucumber downy mildew (dose 400 mg/L) worked out at 100%.

Turning to `N#Cc1c(Cl)c(Cl)c(C#N)c(Nc2ccc([N+](=O)[O-])cc2F)c1Cl` [Compound C-27], the “protectant activity against cucumber downy mildew in vivo” value with cucumber downy mildew (dose 25 mg/L), with cucumber downy mildew (dose 50 mg/L), in the test with cucumber downy mildew (dose 100 mg/L) and in the test with cucumber downy mildew (dose 400 mg/L) was 100% in each case. In addition, the “inhibition rate against cucumber gray mold” value (“inhibition rate” for short) with cucumber gray mold (in vitro) stood at 80%.

With `N#Cc1cc([N+](=O)[O-])ccc1Nc1c(Cl)c(Cl)c(C#N)c(Cl)c1C#N` [Compound B-38], the “protectant activity against corn rust in vivo” value with corn rust (dose 400 mg/L) is listed as 100%. The “protectant activity against cucumber downy mildew in vivo” value with cucumber downy mildew (dose 400 mg/L) was determined as 100%.

Take `N#Cc1c(F)c(F)c(C#N)c(Nc2ccc(Cl)cc2Cl)c1F` [Compound C-71]: the “inhibition rate” value in the test with cucumber gray mold (in vitro) is 80%.

With `Cc1ccccc1Nc1c(Cl)c(Cl)c(C#N)c(Cl)c1C#N` [Compound B-1], the “protectant activity against corn rust in vivo” value in the test on corn rust (dose 400 mg/L) was 100%.

As for `Cc1c(Cl)c([N+](=O)[O-])cc([N+](=O)[O-])c1Nc1c(Cl)c(Cl)c(C#N)c(Cl)c1C#N` [Compound B-68], the “protectant activity against cucumber downy mildew in vivo” value in the test with cucumber downy mildew (dose 100 mg/L) and in the test with cucumber downy mildew (dose 400 mg/L) was 100% each time. In the test with cucumber gray mold (in vitro), the “inhibition rate” value stood at 80%.

In the case of `N#Cc1c(Cl)c(Cl)c(C#N)c(Nc2c(Cl)cc([N+](=O)[O-])cc2Cl)c1Cl` [Compound C-40], the “the protectant activity (%) against corn rust” value (from here on “the protectant activity (%)”) was 30% with corn rust (6.25 mg/L), 80% with corn rust (25 mg/L), 100% with corn rust (100 mg/L) and 100% in the test on corn rust (400 mg/L). For the same molecule, the “protectant activity against corn rust in vivo” value with corn rust (dose 100 mg/L) was 100%. In addition, the “protectant activity against cucumber downy mildew in vivo” value with cucumber downy mildew (dose 25 mg/L), in the test on cucumber downy mildew (dose 50 mg/L), in the test with cucumber downy mildew (dose 100 mg/L) and in the test with cucumber downy mildew (dose 400 mg/L) was 100% in each case.

Regarding `N#Cc1c(Cl)c(Cl)c(Nc2ccc(Cl)cc2[N+](=O)[O-])c(Cl)c1C#N` [Compound A-23], in the test with corn rust (dose 400 mg/L), the “protectant activity against corn rust in vivo” value turned out to be 80%. Besides, in the test with cucumber downy mildew (dose 400 mg/L), the “protectant activity against cucumber downy mildew in vivo” value is given as 100%.

`N#Cc1c(F)c(Cl)c(Nc2ccc(Cl)cc2)c(C#N)c1F` [KC18]: the pest or weed control at 6.25 µg/mL with corn rust (6.25 mg/L) was 0%. This molecule also displayed a pest or weed control at 25 µg/mL in the test on corn rust (25 mg/L) of 0%. In the test with corn rust (100 mg/L), this molecule returned a pest or weed control at 100 µg/mL of 0%. Moreover, the pest or weed control at 400 µg/mL with corn rust (setting [1]) and in the test on corn rust (setting [2]) was 0% in each case.

Take `N#Cc1c(Cl)c(Cl)c(C#N)c(Nc2c(Br)cc([N+](=O)[O-])cc2Br)c1Cl` [Compound C-41]: the “the protectant activity (%)” value in the test with corn rust (6.25 mg/L) came to 50%; in the test on corn rust (25 mg/L), 90%; in the test with corn rust (100 mg/L) it was 100%; with corn rust (400 mg/L), 100%. For the same molecule, the “protectant activity against corn rust in vivo” value in the test with corn rust (dose 25 mg/L) is reported as 90%; with corn rust (dose 100 mg/L), 100%; in the test on corn rust (dose 400 mg/L), 100%.

On to `N#Cc1c(Cl)c(Cl)c(Nc2cc(Cl)cnc2Cl)c(Cl)c1C#N` [Compound A-85], for which the “protectant activity against corn rust in vivo” value in the test on corn rust (dose 400 mg/L) is recorded as 80%. Further, in the test on cucumber downy mildew (dose 400 mg/L), the “protectant activity against cucumber downy mildew in vivo” value worked out at 100%.

As for `N#Cc1c(F)c(F)c(C#N)c(Nc2c(Cl)cc([N+](=O)[O-])cc2Br)c1F` [Compound C-99], the “protectant activity against corn rust in vivo” value with corn rust (dose 400 mg/L) turned out to be 100%.

With `Cc1ccc(Nc2c(F)c(F)c(C#N)c(F)c2C#N)cc1` [KC9], the pest or weed control at 25 µg/mL stood at 20% in the test with cucumber downy mildew (setting [3]) and 20% with cucumber downy mildew (Cucumis sativus, 168 h, dose 25 mg/L, read-out: protectant activity against cucumber downy mildew in vivo). The pest or weed control at 50 µg/mL in the test on cucumber downy mildew (setting [4]) and in the test on cucumber downy mildew (setting [6]) was 30% each time. Moreover, in the test on cucumber downy mildew (setting [5]), the pest or weed control at 100 µg/mL came to 65%. Besides, the inhibition at 0.3 µg/mL with cucumber gray mold worked out at 0%. Further, the inhibition at 0.9 µg/mL in the test on cucumber gray mold (setting [7]) is 0%. For the same molecule, the inhibition at 2.8 µg/mL in the test with cucumber gray mold (setting [8]) turned out to be 0%; in the test on cucumber gray mold (in vitro, dose 2.8 mg/L, read-out: inhibition rate against cucumber gray mold) it was 0%. Besides, in the test on cucumber gray mold (setting [7]), the inhibition at 8.3 µg/mL was determined as 80%.

Regarding `N#Cc1c(Cl)c(Cl)c(Nc2cc(C(F)(F)F)ccc2Cl)c(Cl)c1C#N` [Compound A-19], the “protectant activity against corn rust in vivo” value with corn rust (dose 400 mg/L) amounted to 80%. Further, in the test on cucumber downy mildew (dose 400 mg/L), the “protectant activity against cucumber downy mildew in vivo” value is on record as 100%.

As for `N#Cc1c(F)c(F)c(Nc2c(Cl)cc(C(F)(F)F)cc2Cl)c(C#N)c1F` [Compound B-111], the “protectant activity against corn rust in vivo” value in the test with corn rust (dose 400 mg/L) is listed as 100%. In addition, the “protectant activity against cucumber downy mildew in vivo” value in the test on cucumber downy mildew (dose 50 mg/L) is 98%; in the test on cucumber downy mildew (dose 100 mg/L), 100%; in the test on cucumber downy mildew (dose 400 mg/L), 100%.

For `N#Cc1c(Cl)c(Cl)c(Nc2ccc(F)cc2F)c(C#N)c1Cl` [Compound B-14], the “protectant activity against corn rust in vivo” value in the test on corn rust (dose 400 mg/L) is recorded as 100%. Besides, the “protectant activity against cucumber downy mildew in vivo” value with cucumber downy mildew (dose 400 mg/L) was 100%.

For `N#Cc1cc(C#N)c(Cl)c(Nc2c(Cl)c(Cl)c(C#N)c(C#N)c2Cl)c1` [Compound A-59], the “protectant activity against corn rust in vivo” value in the test on corn rust (dose 400 mg/L) amounted to 100%. For the same molecule, the “protectant activity against cucumber downy mildew in vivo” value in the test on cucumber downy mildew (dose 400 mg/L) is on record as 100%.

Turning to `N#Cc1c(F)c(F)c(C#N)c(Nc2ccc(Cl)cc2[N+](=O)[O-])c1F` [Compound C-89], in the test on corn rust (dose 400 mg/L), the “protectant activity against corn rust in vivo” value is reported as 80%.

For `N#Cc1c(Cl)c(Cl)c(Nc2c(Cl)cc([N+](=O)[O-])cc2Br)c(C#N)c1Cl` [Compound B-55], the “the protectant activity (%)” value is 0% in the test on corn rust (6.25 mg/L), 25% with corn rust (25 mg/L), 100% in the test with corn rust (100 mg/L) and 100% in the test on corn rust (400 mg/L). Also, the “protectant activity against corn rust in vivo” value in the test on corn rust (dose 100 mg/L) and in the test with corn rust (dose 400 mg/L) was 100% each time.

In turn, `N#Cc1c(F)c(Cl)c(Nc2ccccc2)c(C#N)c1F` [KC17] gave a pest or weed control at 6.25 µg/mL with corn rust (6.25 mg/L) of 0%. For the same molecule, the pest or weed control at 25 µg/mL in the test with corn rust (25 mg/L) and with cucumber downy mildew (setting [3]) was 0% throughout. Further, the pest or weed control at 100 µg/mL in the test with corn rust (100 mg/L) and with cucumber downy mildew (setting [5]) was 0% in each case. Also, the pest or weed control at 400 µg/mL in the test on corn rust (setting [1]) amounted to 0%; in the test with corn rust (setting [2]), 0%; with cucumber downy mildew (Cucumis sativus, 168 h, dose 400 mg/L) it was 0%. Moreover, in the test on cucumber downy mildew (Cucumis sativus, 168 h), the pest or weed control at 12.5 µg/mL stood at 0%. Besides, the pest or weed control at 50 µg/mL in the test on cucumber downy mildew (setting [4]) was determined as 0%.
